The conditions of series [1]: 58 μg/kg intravenously, dogs; cited from earlier work.
The conditions of series [2]: topical administration of up to 20%, human eye; cited from earlier work.
Series [3] is described as follows: Body weight of rats with eye drop treatment. In kind it is in vivo, Sprague-Dawley rats. The source says:
Prevention of diabetic retinopathy by (S)-isoproterenol […] drop was studied using a rat model. […] Animal weights were monitored every week.

The conditions of series [4]: 17.6% eye drop, rabbit; cited from earlier work.
Series [5] concerns HUVECs. The series is described as follows: Invasion of HUVECs through Matrigel-coated filter (Matrigel Invasion Chambers). Format: cell-based, human. On the procedure: HUVECs were purchased from Cedarlane Laboratories (Burlington, Canada) and maintained in Endothelial Cell Basal Medium-2 (EBM-2) supplemented with EGM-2 growth factor mixture (Clonetics) and 2% Foetal bovine serum. The cells were cultured at 37° C. under a humidified 95%/5% (v/v) mixture of air and CO2. Invasion of endothelial cells was measured using BD BioCoatTM Growth Factor Reduced MatrigelTM Invasion Chambers (Beckton-Dickinson; […]). EBM-2 medium (500 μL each) was placed into the lower wells. HUVECs (2.5×10^4) in EBM-2 serum-free medium (500 μL) were seeded into each of the upper wells and incubated in the presence of a test compound. HUVECs were allowed to migrate for 36 h at 37° C. in an atmosphere of 95% air/5% CO2. HUVECs that remained on the upper surface of the filter were removed using a cotton swab. HUVECs that had migrated to the lower surface of the filters were fixed with methanol, stained with 0.1% crystal violet/20% (v/v) methanol and examined using a Leitz Labovert (Leitz, Wetzlar, Germany) inverted microscope after mounting on a slide. Three randomly selected microscopic fields were digitally captured using a Nikon […] 995 digital camera and the number of HUVECs in each photograph were directly counted. Each reported value represents the average and standard deviation of a total […] from two independent experiments.

For series [6] the following is noted: humans, cited from earlier work.
For series [7] the following is noted: Groups I vs II and III vs IV.
Protocol: Two-month-old male Sprague-Dawley rats were purchased from Charles River, Canada. They were housed in the Biotechnology Research Institute (BRI)-animal facility. […] Diabetes was induced in male Sprague-Dawley rats weighing approximately 200 to 250 g by a single intraperitoneal injection of the beta-cell toxin, Streptozotocin (STZ) (Sigma, St. Louis, Mich.), at a dose of 60 mg/kg body weight in 0.1M citrate buffer pH 4.5. Non-diabetic control rats received citrate buffer only.
One week following induction of diabetes, glucose levels were determined in the blood sampled from the tail vein using a blood glucose monitoring system (Ascensia ELITE Blood Glucose Meter, Bayer Inc, Toronto, ON, Canada). Since the limit of detection of the blood glucose meter was 33 mM, any value above that has been assigned a maximum value of 35 mM. Only animals with blood glucose levels higher than 15 mM were retained in the study.
Eye drops or vehicle were administered twice a day, seven days a week, on the cornea of different groups of rats, with a minimum interval of 7 h between the two treatments. To promote weight gain and limit hyperglycemia, diabetic rats were injected sub-cutaneously with 2 IU ultralente insulin (Humulin, Eli Lilly, Toronto, ON, Canada) three times a week. Animal weights were monitored every week.
For series [8] the following is noted: mouse, in vivo, iv; cited from earlier work.
The test system of series [9] is HUVECs. The series is described as follows: Matrigel endothelial cell capillary-tube formation assay. In kind it is cell-based, human. How it is done: HUVECs were purchased from Cedarlane Laboratories (Burlington, Canada) and maintained in Endothelial Cell Basal Medium-2 (EBM-2) supplemented with EGM-2 growth factor mixture (Clonetics) and 2% Foetal bovine serum. The cells were cultured at 37° C. under a humidified 95%/5% (v/v) mixture of air and CO2.
Matrigel endothelial cell tube formation assays were performed using BD Matrigel™ (Becton, Dickinson). BD Matrigel™ was thawed at 4° C., and 150 μL were quickly added to each well of a 48-well plate and allowed to solidify for 60 min at 37° C. HUVECs (7×10^4 cells/mL) In EC basal medium-2 (EBM-2) were seeded 250 μL per well onto the surface of the solid BD Matrigel™ in the presence of the compounds to be tested. The cells were incubated for 22 h at […] in a 5% CO2 incubator. Tube formation was monitored by using a Leitz Labovert (Leitz, Wetzlar, Germany) inverted microscope. Two randomly selected two microscopic fields were photographed with a digital camera (Nikon, COOLPICKS 995). The total length of tube structures in each photograph was measured using ImageJ™ free software (http://rsb.info.nih.gov/ij/) and was normalized to that of control with no test compound. Each reported value represents the average of total six photographs from three independent experiments.

The conditions of series [10]: large intravenous dose; cited from earlier work.
Series [11] is described as follows: Optical stability (racemization) in eye drop formulations, 10 days at 55° C., chiral HPLC. Format: physicochemical. The conditions noted are these: for % optical purity: 1.7 mg/mL, pH 6.0, starting material 99.90%. On the procedure:
The optical isomers of (S)-isoproterenol bitartrate and (S)-isoproterenol dipivalate hydrochloride were separated by HPLC using Shiseido chiral CD-Ph column (250×4.6 mm; 5 μm; isocratic 60:40 of 0.5 M sodium perchlorate/water and acetonitrile; flow rate, 1.0 mL/min). The elution profile was monitored by the absorption at 223 nm for isoproterenol bitartrate and 264 nm for isoproterenol dipivalate hydrochloride. The optical impurities were quantitated by the absorbance at 223 nm for isoproterenol bitartrate and 264 nm for isoproterenol dipivalate hydrochloride and by using a curve fitting software TABLECurve2D (Systat). The impurities of (R)-isoproterenol bitartrate and (R)-isoproterenol dipivalate hydrochloride were estimated as […], respectively. Thus, the racemization induced during synthesis and purification was minimal, if it occurred.
Table 2 describes the optical purities of (S)-isoproterenol and (S)-isoproterenol dipivalate after incubation in various eye drop formulations for 10 days at 55° C. and compared with those before incubation. The incubation for 10 days at 55° C. corresponds to the incubation for 167 days at 22° C.

By LD50 is commonly meant the dose at which mortality reaches 50%.

With `CC(C)NCC(O)c1ccc(OC(=O)C(C)(C)C)c(OC(=O)C(C)(C)C)c1` (racemic) [(R,S)-isoproterenol dipivalate], the cardiovascular responses entry in series [1] is “the same responses as those of (R,S)-isoproterenol”.

As for `CC(C)NC[C@@H](O)c1ccc(O)c(O)c1.Cl` [(S)-isoproterenol hydrochloride], in [2], the “lowering of intra-ocular pressure” value is given as “did not show any indication to lower intra-ocular pressure”.

Consider `CC(C)NC[C@@H](O)c1ccc(O)c(O)c1` [(S)-isoproterenol], for which the “effect on weight gain/loss” value is “no effect” in [3] (diabetic rats, Group IV vs Group III) and “no effect” in series [3] (non-diabetic rats, Group II vs Group I). The “systemic effects (heart rate, blood pressure, hematologic or serum chemistry values, necropsy)” value in series [4] was “no systemic effects”. For the same compound, the “reduction of the invasion of HUVECs in Matrigel” value in the series with HUVECs [5] (20 μM) is 60%. Besides, in the series with HUVECs [5] (measured at 20 μM, HUVECs), the “Activity (anti-invasion)” value is listed as “Anti-invasive”. In series [6] (10%, topical), the “side effects of topically applied 10% solution” value was “brief mild conjunctival hyperemia and irritation”. The “side effects of 20% eye drop” value in [6] (20% eye drop) is “marked conjunctival hyperemia and mild miosis that persisted for several hours”. In series [7], the “effect on the blood glucose level and diabetes” value is on record as “does not affect”. The LD50 in series [8] was 113 ± 5 mg/kg. For the same compound, the “anti-angiogenic activity at 95% w/w optical purity” value in the series on HUVECs [9] (95% w/w optically pure, total isoproterenol 20 μM, FIG. 3) was “in the transition from non-antianglogenic to anti-angiogenic”. The “potency (inhibition of capillary tube formation)” value in the series on HUVECs [9] (angiogenic assay condition used in FIG. 1, 1-50 μM, 22 h) was “around 10 μM”. Further, in the series with HUVECs [9] (measured at 20 μM, HUVECs on Matrigel, 22 h), the “Activity (anti-angiogenicity)” value is on record as “anti-angiogenic activity”. Besides, the “optical purity of (S)-isoproterenol at which anti-angiogenic activity was observed” value in the series with HUVECs [9] (various ratios of (S)- and (R)-isoproterenol, total 20 μM, FIG. 3) is reported as “at least 97 % w/w”. Further, the “effects on blood pressure and pulse rate” value in series [10] is “only slight and transient effects”. Moreover, in [11] (10 days at 55° C.), the “conversion to the (R)-isoform” value is recorded as 2.55%. Further, the “% optical purity” value in series [11] (10 days at 55° C., NaCl 8 mg/mL, Benzalkonium chloride 0.04 mg/mL, Tween 80 2.5 mg/mL) stood at 96.68%; in series [11] (10 days at 55° C., Povidone 2 mg/mL, Benzalkonium chloride 0.04 mg/mL, D-Mannitol 54.7 mg/mL), 97.90%; in [11] (10 days at 55° C., Povidone 2 mg/mL, D-Mannitol 54.7 mg/mL, Chlorobutanol 1 mg/mL, 2-hydroxypropyl cyclodextrin 10.1 mg/mL), 97.56%; in series [11] (10 days at 55° C., Povidone 2 mg/mL, NaCl 8 mg/mL, Benzalkonium chloride 0.04 mg/mL, 2-hydroxypropyl cyclodextrin 10.1 mg/mL), 97.26%. For the same compound, the “average optical purity after incubating 10 days at 55° C.” value in [11] (average over the eye drop formulations) is on record as 97.35±0.52%. For the same compound, in [11] (extrapolated, from 99.90%), the “optical purity after 655 days of storage at room temperature” value is listed as 90%.

The values are drawn from patent US9351947B2, “Use of catecholamines and related compounds as anti-angiogenic agents” (National Research Council of Canada, priority 2007, dated 2016).
